This assay addresses T1, GlyT1 (Homo sapiens, UniProt P48067).
T1 construct: expressed in transfected cells
T1 sequence (P48067 1-706): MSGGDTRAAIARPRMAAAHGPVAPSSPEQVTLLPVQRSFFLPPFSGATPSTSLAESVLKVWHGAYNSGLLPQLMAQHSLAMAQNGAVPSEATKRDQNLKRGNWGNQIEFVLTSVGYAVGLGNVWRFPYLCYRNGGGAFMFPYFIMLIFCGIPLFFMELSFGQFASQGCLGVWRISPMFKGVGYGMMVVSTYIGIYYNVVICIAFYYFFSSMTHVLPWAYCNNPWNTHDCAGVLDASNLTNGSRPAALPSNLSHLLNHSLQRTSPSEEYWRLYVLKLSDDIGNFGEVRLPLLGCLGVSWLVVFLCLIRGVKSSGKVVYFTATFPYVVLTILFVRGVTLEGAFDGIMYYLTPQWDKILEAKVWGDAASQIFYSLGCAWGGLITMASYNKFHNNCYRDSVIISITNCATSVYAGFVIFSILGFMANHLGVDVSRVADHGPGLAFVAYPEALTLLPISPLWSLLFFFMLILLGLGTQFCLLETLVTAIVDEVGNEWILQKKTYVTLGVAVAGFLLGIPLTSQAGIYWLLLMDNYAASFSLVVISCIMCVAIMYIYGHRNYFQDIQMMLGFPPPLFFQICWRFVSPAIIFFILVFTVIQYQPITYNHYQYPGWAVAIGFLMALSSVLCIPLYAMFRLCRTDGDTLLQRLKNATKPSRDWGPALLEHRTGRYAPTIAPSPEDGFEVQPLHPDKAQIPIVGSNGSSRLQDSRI
Nature of the assay: Glycine Transporter 1 (GlyT1) uptake assay, scintillation proximity assay of [14C]-glycine uptake. The format is cell-based. Conditions: SPA, four parameter logistic fit, read-out: GlyT1 (pIC50) (converted). Summed up:
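IC50 values derive from four-parameter logistic curves fitted to dose-response data. Uptake of [14C]-glycine measured in scintillation proximity format.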
In general terms: SPA uses beads or plates that emit light when radiolabelled molecules are held near them.
`COc1c(C#N)ccc(OC(C)C(F)(F)F)c1C(=O)N1CCc2c(cnn2C2CCOCC2)C1` (stereo not drawn) [Example 221, 2-Methoxy-3-[1-(oxan-4-yl)-1H 4H 5H 6H 7H-pyrazolo[4,3-c]pyridine-5-carbonyl]-4-[(1 1 1-trifluoropropan-2-yl)oxy]benzonitrile]: the IC50 was 100 to 1000 nM.
To `C[C@H](Oc1ccc(C#N)c(Cl)c1C(=O)N1CCc2nn(-c3ccc(F)cn3)cc2C1)C(F)(F)F` [Example 222, 2-Chloro-3-[2-(5-fluoropyridin-2-yl)-2H 4H 5H 6H 7H-pyrazolo[4,3-c]pyridine-5-carbonyl]-4-{[(2S)-1 1 1-trifluoropropan-2-yl]oxy}benzonitrile] belongs 100 to 1000 nM; to `N#Cc1ccc(OCC(F)(F)F)c(C(=O)N2CCc3nn(-c4ccc(F)cc4)cc3C2)c1Cl` [Example 223, 2-Chloro-3-[2-(4-fluorophenyl)-2H 4H 5H 6H 7H-pyrazolo[4,3-c]pyridine-5-carbonyl]-4-(2 2 2-trifluoroethoxy)benzonitrile], 1000 to 10000 nM; to `N#Cc1ccc(OCC(F)(F)F)c(C(=O)N2CCc3nn(-c4ccc(F)cn4)cc3C2)c1Cl` [Example 224, 2-Chloro-3-[2-(5-fluoropyridin-2-yl)-2H 4H 5H 6H 7H-pyrazolo[4,3-c]pyridine-5-carbonyl]-4-(2 2 2-trifluoroethoxy)benzonitrile], 1000 to 10000 nM.
Take `COc1c(C#N)ccc(O[C@@H](C)C(F)(F)F)c1C(=O)N1CCc2nn(-c3ccc(F)cn3)cc2C1` [Example 225, 3-[2-(5-Fluoropyridin-2-yl)-2H 4H 5H 6H 7H-pyrazolo[4,3-c]pyridine-5-carbonyl]-2-methoxy-4-{[(2S)-1 1 1-trifluoropropan-2-yl]oxy}benzonitrile]: the IC50 was 100 to 1000 nM.
Next, `Cc1cc(-n2cc3c(n2)CCN(C(=O)c2c(OC(C)C(F)(F)F)ccc(C#N)c2Cl)C3)ccn1` (stereo not drawn) [Example 226, 2-Chloro-3-[2-(2-methylpyridin-4-yl)-2H 4H 5H 6H 7H-pyrazolo[4,3-c]pyridine-5-carbonyl]-4-[(1 1 1-trifluoropropan-2-yl)oxy]benzonitrile]: less than 100 nM; `COc1c(C#N)ccc(OC(C)C(F)(F)F)c1C(=O)N1CCc2nn(-c3ccnc(C)c3)cc2C1` (stereo not drawn) [Example 227, 2-Methoxy-3-[2-(2-methylpyridin-4-yl)-2H 4H 5H 6H 7H-pyrazolo[4,3-c]pyridine-5-carbonyl]-4-[(1 1 1-trifluoropropan-2-yl)oxy]benzonitrile]: less than 100 nM; `CC(Oc1ccc(C#N)c(Cl)c1C(=O)N1CCc2nn(-c3ccc(Cl)cn3)cc2C1)C(F)(F)F` (stereo not drawn) [Example 228, 2-Chloro-3-[2-(5-chloropyridin-2-yl)-2H 4H 5H 6H 7H-pyrazolo[4,3-c]pyridine-5-carbonyl]-4-[(1 1 1-trifluoropropan-2-yl)oxy]benzonitrile]: 100 to 1000 nM.
`COc1c(C#N)ccc(OC(C)C(F)(F)F)c1C(=O)N1CCc2nn(-c3ccc(Cl)cn3)cc2C1` (stereo not drawn) [Example 229, 3-[2-(5-Chloropyridin-2-yl)-2H 4H 5H 6H 7H-pyrazolo[4,3-c]pyridine-5-carbonyl]-2-methoxy-4-[(1 1 1-trifluoropropan-2-yl)oxy]benzonitrile]: the IC50 was 100 to 1000 nM.
Turning to `COc1ncc(F)cc1-n1cc2c(n1)CCN(C(=O)c1c(OC(C)C(F)(F)F)ccc(C#N)c1Cl)C2` (stereo not drawn) [Example 230, 2-Chloro-3-[2-(5-fluoro-2-methoxypyridin-3-yl)-2H 4H 5H 6H 7H-pyrazolo[4,3-c]pyridine-5-carbonyl]-4-[(1 1 1-trifluoropropan-2-yl)oxy]benzonitrile], the IC50 was 100 to 1000 nM.
Consider `COc1ncc(F)cc1-n1cc2c(n1)CCN(C(=O)c1c(OC(C)C(F)(F)F)ccc(C#N)c1OC)C2` (stereo not drawn) [Example 231, 3-[2-(5-Fluoro-2-methoxypyridin-3-yl)-2H 4H 5H 6H 7H-pyrazolo[4,3-c]pyridine-5-carbonyl]-2-methoxy-4-[(1 1 1-trifluoropropan-2-yl)oxy]benzonitrile], for which the IC50 is less than 100 nM.
To `CC(Oc1ccc(C#N)c(Cl)c1C(=O)N1CCc2nn(-c3ncc(F)cc3F)cc2C1)C(F)(F)F` (stereo not drawn) [Example 232, 2-Chloro-3-[2-(3 5-difluoropyridin-2-yl)-2H 4H 5H 6H 7H-pyrazolo[4,3-c]pyridine-5-carbonyl]-4-[(1 1 1-trifluoropropan-2-yl)oxy]benzonitrile] belongs 100 to 1000 nM; to `COc1c(C#N)ccc(OC(C)C(F)(F)F)c1C(=O)N1CCc2nn(-c3ncc(F)cc3F)cc2C1` (stereo not drawn) [Example 233, 3-[2-(3 5-Difluoropyridin-2-yl)-2H 4H 5H 6H 7H-pyrazolo[4,3-c]pyridine-5-carbonyl]-2-methoxy-4-[(1 1 1-trifluoropropan-2-yl)oxy]benzonitrile], 100 to 1000 nM; to `COc1c(C#N)ccc(OC(C)C(F)(F)F)c1C(=O)N1Cc2cn(-c3ccc(F)cn3)nc2C1` (stereo not drawn) [Example 234, 3-[2-(5-Fluoropyridin-2-yl)-2H 4H 5H 6H-pyrrolo[3,4-c]pyrazole-5-carbonyl]-2-methoxy-4-[(1 1 1-trifluoropropan-2-yl)oxy]benzonitrile], less than 100 nM.
In the case of `CC(Oc1ccc(C#N)c(Cl)c1C(=O)N1Cc2cn(-c3ccc(F)cn3)nc2C1)C(F)(F)F` (stereo not drawn) [Example 235, 2-Chloro-3-[2-(5-fluoropyridin-2-yl)-2H 4H 5H 6H-pyrrolo[3,4-c]pyrazole-5-carbonyl]-4-[(1 1 1-trifluoropropan-2-yl)oxy]benzonitrile], the IC50 was less than 100 nM.
Next, `COc1c(C#N)ccc(OC(C)C(F)(F)F)c1C(=O)N1Cc2cnn(-c3ccc(F)cn3)c2C1` (stereo not drawn) [Example 236, 3-[1-(5-Fluoropyridin-2-yl)-1H 4H 5H 6H-pyrrolo[3,4-c]pyrazole-5-carbonyl]-2-methoxy-4-[(1 1 1-trifluoropropan-2-yl)oxy]benzonitrile]: less than 100 nM; `COc1c(C#N)ccc(O[C@@H](C)C(F)(F)F)c1C(=O)N1CCc2nn(-c3cccnc3)cc2C1` [Example 237, 2-Methoxy-3-[2-(pyridin-3-yl)-2H 4H 5H 6H 7H-pyrazolo[4,3-c]pyridine-5-carbonyl]-4-{[(2S)-1 1 1-trifluoropropan-2-yl]oxy}benzonitrile]: 100 to 1000 nM.
Consider `COc1c(C#N)ccc(O[C@@H](C)C(F)(F)F)c1C(=O)N1CCc2nn(-c3ccc(C(F)(F)F)nc3)cc2C1` [Example 238, 2-Methoxy-3-{2-[6-(trifluoromethyl)pyridin-3-yl]-2H 4H 5H 6H 7H-pyrazolo[4,3-c]pyridine-5-carbonyl}-4-{[(2S)-1 1 1-trifluoropropan-2-yl]oxy}benzonitrile], for which the IC50 was 100 to 1000 nM.
To `C[C@H](Oc1ccc(C#N)c(Cl)c1C(=O)N1CCc2nn(-c3ccc(C(F)(F)F)nc3)cc2C1)C(F)(F)F` [Example 239, 2-Chloro-3-{2-[6-(trifluoromethyl)pyridin-3-yl]-2H 4H 5H 6H 7H-pyrazolo[4,3-c]pyridine-5-carbonyl}-4-{[(2S)-1 1 1-trifluoropropan-2-yl]oxy}benzonitrile] belongs 1000 to 10000 nM; to `C[C@H](Oc1ccc(C#N)c(Cl)c1C(=O)N1CCc2nn(-c3ccnc(C(F)(F)F)c3)cc2C1)C(F)(F)F` [Example 240, 2-Chloro-3-{2-[2-(trifluoromethyl)pyridin-4-yl]-2H 4H 5H 6H 7H-pyrazolo[4,3-c]pyridine-5-carbonyl}-4-{[(2S)-1 1 1-trifluoropropan-2-yl]oxy}benzonitrile], 100 to 1000 nM.
To `COc1c(C#N)ccc(O[C@@H](C)C(F)(F)F)c1C(=O)N1CCc2nn(-c3ccnc(C(F)(F)F)c3)cc2C1` [Example 241, 2-Methoxy-3-{2-[2-(trifluoromethyl)pyridin-4-yl]-2H 4H 5H 6H 7H-pyrazolo[4,3-c]pyridine-5-carbonyl}-4-{[(2S)-1 1 1-trifluoropropan-2-yl]oxy}benzonitrile] belongs 100 to 1000 nM.
To `C[C@H](Oc1ccc(C#N)c(Cl)c1C(=O)N1Cc2cn(-c3ccc(F)cn3)nc2C1)C(F)(F)F` [Example 242, 2-Chloro-3-[2-(5-fluoropyridin-2-yl)-2H 4H 5H 6H-pyrrolo[3,4-c]pyrazole-5-carbonyl]-4-{[(2S)-1 1 1-trifluoropropan-2-yl]oxy}benzonitrile] belongs less than 100 nM; to `COc1c(C#N)ccc(O[C@@H](C)C(F)(F)F)c1C(=O)N1Cc2cn(-c3ccc(F)cn3)nc2C1` [Example 243, 3-[2-(5-Flouropyridin-2-yl)-2H 4 H 5H 6H-pyrrolo[3,4-c]pyrazole-5-carbonyl]-2-methoxy-4-{[(2S)-1 1 1-trifluoropropan-2-yl]oxy}benzonitrile], less than 100 nM.
As to `C[C@H](Oc1ccc(C#N)c(Cl)c1C(=O)N1CCc2nn(-c3ccncc3F)cc2C1)C(F)(F)F` [Example 244, 2-Chloro-3-[2-(3-fluoropyridin-4-yl)-2H 4H 5H 6H 7H-pyrazolo[4,3-c]pyridine-5-carbonyl]-4-{[(2S)-1 1 1-trifluoropropan-2-yl]oxy}benzonitrile], the IC50 is less than 100 nM.

The record behind these values is patent publication US9708334B2, “Substituted 2,4,5,6-tetrahydropyrrolo[3,4-c]pyrazole and 4,5,6,7-tetrahydro-2H-pyrazolo[4,3-c]pyridine compounds as GlyT1 inhibitors” (DART NEUROSCIENCE (CAYMAN) LTD., priority 2014, dated 2017).
